Measurements reported in US10738028B2, “Spiro three-membered ring, spiro five-membered ring peptide deformylase inhibitor and use thereof in antibacteria and anti-tumor” (priority 2016, dated 2020).

Tests used:
Format in all cases: cell-based
[1] = test system: Enterococcus faecium (EFM); assay: MIC, two-fold agar dilution (CLSI), clinical isolates
Outline: (§1)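 Test samples were assayed by the CLSI-recommended two-fold agar dilution method, and the minimum inhibitory concentration against each tested strain was determined.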

[2] = test system: Moraxella catarrhalis (BCA); assay: as above
Outline: as §1

[3] = test system: Escherichia coli (including ESBLs, non-ESBLs); assay: as above
Outline: as §1

[4] = test system: Streptococcus pneoumoniae (SPN); assay: as above
Outline: as §1

[5] = test system: methicillin-resistant Staphylococcus epidermidis (MRSE); assay: as above
Outline: as §1

[6] = test system: methicillin-sensitive Staphylococcus epidermidis (MSSE); assay: as above
Outline: as §1

[7] = test system: methicillin-sensitive Staphylococcus aureus (MSSA); assay: as above
Outline: as §1

[8] = test system: methicillin-resistant Staphylococcus aureus (MRSA); assay: as above
Outline: as §1

[9] = test system: Enterococcus faecalis (EFA); assay: as above
Outline: as §1

[10] = test system: HCT-116 colorectal cancer cell line; assay: CCK-8 proliferation inhibition; conditions: concentration of 30 μM; 72 hours; CCK-8; 30 µM
Outline: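 Proliferation over 72 hours of compound treatment was measured with CCK-8 against a 1‰ DMSO control.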

[11] = test system: MGC-803 gastric cancer cell line; assay: CCK-8 proliferation inhibition; conditions: concentration of 30 μM
From the text: (§2) 2. The present invention adopts the CCK-8 method to determine the proliferation inhibition effect of the spiro three-membered ring, spiro five-membered ring peptide deformylase inhibitor as described in Examples 1-80 against colorectal cancer cells, lung cancer cells, gastric cancer cells, liver cancer cells, and the like. […] The compound having the best activity synthesized in Example 64 was further tested for its inhibitory activity against other tumor cells including T cell leukemia, acute myeloid leukemia, cervical cancer, breast cancer, prostate cancer and osteosarcoma, and the like (see Table 7).
(§3) (1) HCT-116 colorectal cancer cell line, A549 lung cancer cell line, MGC-803 gastric cancer cell line, BEL-7402 liver cancer cell line, Jurkat T cell leukemia cell line, HL60 acute myeloid leukemia cell line, Hela cervical cancer cell line, MCF-7 breast cancer cell line, PC3 prostate cancer cell line and SAOS-2 osteosarcoma cell line were made into single cell suspension, 180 μL of which was inoculated into 96-well culture plate, which was cultured overnight in CO2 incubator (37° C., 5% CO2, 95% air).
(§4) (2) Each of the spiro three-membered ring, spiro five membered ring peptide deformylase inhibitors was dissolved in DMSO, and was further formulated into drug solution with required different final concentration using corresponding cell culture medium. The drug solutions were added to the above cells respectively (20 μL/well), with the control group added with 1‰ DMSO, and cultured in a CO2 incubator for 72 hours.
(§5) (3) After incubation for 72 hours, the culture solution was decanted, and 100 μL of 1:10 diluted CCK-8 solution was added.
(§6) Wherein, in step (1), the concentration of the single cell suspension was 2000 cells/well.
(§7) Wherein, in step (2), HCT-116 cells were cultured in McCoy's 5A medium (containing 10% newborn bovine serum, 1% double antibody); A549 and PC3 cells were cultured in F12 medium (containing 10% newborn bovine serum, 1% double antibody); MGC-803, BEL-7402, SAOS-2, Jurkat and HL60 cells were cultured in 1640 medium (containing 10% newborn bovine serum, 1% double antibody); and MCF-7 and Hela cells were cultured in DMEM high glucose medium (containing 10% newborn bovine serum, 1% double antibody).

[12] = test system: BEL-7402 liver cancer cell line; assay: CCK-8 proliferation inhibition; conditions: concentration of 30 μM, 72 hours, 30 µM
From the text: as §2, §3, §4, §5, §6, §7

[13] = test system: A549 lung cancer cell line; assay: CCK-8 proliferation inhibition; conditions: Homo sapiens, A549, 72 h, concentration of 30 μM
From the text: as §2, §3, §4, §5, §6, §7

Structure (SMILES): O=CN(O)C[C@@H](CC1CCCC1)C(=O)N1CC2(CC2)C[C@H]1C(=O)Nc1nccs1 (stereo in doubt) [Example 40, (S)-5-((S)-3-cyclopentyl-2-((N-hydroxyformamido)methyl)propionyl)-N-(thiazol-2-yl)-5-spiro[2.4]heptane-6-carboxamide]
- Anti-bacterial activity (MIC), strain EFM 15-1 ([1]; clinical isolate EFM 15-1): 1 µg/mL
- Anti-bacterial activity (MIC), strain EFM 15-2 ([1]; clinical isolate EFM 15-2): 1 µg/mL
- Anti-bacterial activity (MIC), strain EFM 15-3 ([1]; clinical isolate EFM 15-3): 0.25 µg/mL
- Anti-bacterial activity (MIC), strain EFM 15-4 ([1]; clinical isolate EFM 15-4): 1 µg/mL
- Anti-bacterial activity (MIC), strain EFM 15-5 ([1]; clinical isolate EFM 15-5): 1 µg/mL
- Anti-bacterial activity (MIC), strain EFM 15-6 ([1]; clinical isolate EFM 15-6): 1 µg/mL
- Anti-bacterial activity (MIC), strain BCA 14-1 ([2]; clinical isolate BCA 14-1): 1 µg/mL
- Anti-bacterial activity (MIC), strain BCA 14-4 ([2]; clinical isolate BCA 14-4): 1 µg/mL
- Anti-bacterial activity (MIC), strain BCA 14-5 ([2]; clinical isolate BCA 14-5): 0.5 µg/mL
- Anti-bacterial activity (MIC), strain BCA 14-6 ([2]; clinical isolate BCA 14-6): 0.5 µg/mL
- Anti-bacterial activity (MIC), strain BCA 14-7 ([2]; clinical isolate BCA 14-7): 0.25 µg/mL
- Anti-bacterial activity (MIC), strain BCA 14-8 ([2]; clinical isolate BCA 14-8): 0.5 µg/mL
- Anti-bacterial activity (MIC), strain BCA 14-10 ([2]; clinical isolate BCA 14-10): 0.2 µg/mL
- Anti-bacterial activity (MIC), strain ECO+ 15-1 ([3]; clinical isolate ECO+ 15-1): 32 µg/mL
- Anti-bacterial activity (MIC), strain ECO+ 15-2 ([3]; clinical isolate ECO+ 15-2): 32 µg/mL
- Anti-bacterial activity (MIC), strain ECO+ 15-3 ([3]; clinical isolate ECO+ 15-3): 32 µg/mL
- Anti-bacterial activity (MIC), strain ECO+ 15-4 ([3]; clinical isolate ECO+ 15-4): 32 µg/mL
- Anti-bacterial activity (MIC), strain ECO− 15-1 ([3]; clinical isolate ECO− 15-1): 32 µg/mL
- Anti-bacterial activity (MIC), strain ECO− 15-2 ([3]; clinical isolate ECO− 15-2): 32 µg/mL
- Anti-bacterial activity (MIC), strain ECO− 15-3 ([3]; clinical isolate ECO− 15-3): 32 µg/mL
- Anti-bacterial activity (MIC), strain ECO− 15-4 ([3]; clinical isolate ECO− 15-4): 32 µg/mL
- Anti-bacterial activity (MIC), strain SPN 16-2 ([4]; clinical isolate SPN 16-2): 0.25 µg/mL
- Anti-bacterial activity (MIC), strain SPN 16-4 ([4]; clinical isolate SPN 16-4): 4 µg/mL
- Anti-bacterial activity (MIC), strain MRSE 15-1 ([5]; clinical isolate MRSE 15-1): 0.5 µg/mL
- Anti-bacterial activity (MIC), strain MRSE 15-2 ([5]; clinical isolate MRSE 15-2): 0.5 µg/mL
- Anti-bacterial activity (MIC), strain MRSE 15-3 ([5]; clinical isolate MRSE 15-3): 0.5 µg/mL
- Anti-bacterial activity (MIC), strain MRSE 15-7 ([5]; clinical isolate MRSE 15-7): 0.5 µg/mL
- Anti-bacterial activity (MIC), strain MSSE 15-3 ([6]; clinical isolate MSSE 15-3): 0.5 µg/mL
- Anti-bacterial activity (MIC), strain MSSE 15-4 ([6]; clinical isolate MSSE 15-4): 0.5 µg/mL
- Anti-bacterial activity (MIC), strain MSSE 15-5 ([6]; clinical isolate MSSE 15-5): 0.25 µg/mL
- Anti-bacterial activity (MIC), strain MSSE 15-6 ([6]; clinical isolate MSSE 15-6): 0.25 µg/mL
- Anti-bacterial activity (MIC), strain MSSA 15-3 ([7]; clinical isolate MSSA 15-3): 0.5 µg/mL
- Anti-bacterial activity (MIC), strain MSSA 15-4 ([7]; clinical isolate MSSA 15-4): 0.5 µg/mL
- Anti-bacterial activity (MIC), strain MSSA 15-5 ([7]; clinical isolate MSSA 15-5): 0.5 µg/mL
- Anti-bacterial activity (MIC), strain MSSA 15-6 ([7]; clinical isolate MSSA 15-6): 0.5 µg/mL
- Anti-bacterial activity (MIC), strain MRSA 15-1 ([8]; clinical isolate MRSA 15-1): 0.5 µg/mL
- Anti-bacterial activity (MIC), strain MRSA 15-2 ([8]; clinical isolate MRSA 15-2): 0.5 µg/mL
- Anti-bacterial activity (MIC), strain MRSA 15-3 ([8]; clinical isolate MRSA 15-3): 0.25 µg/mL
- Anti-bacterial activity (MIC), strain MRSA 15-4 ([8]; clinical isolate MRSA 15-4): 0.25 µg/mL
- Anti-bacterial activity (MIC), strain EFA 15-1 ([9]; clinical isolate EFA 15-1): 4 µg/mL
- Anti-bacterial activity (MIC), strain EFA 15-2 ([9]; clinical isolate EFA 15-2): 4 µg/mL
- Anti-bacterial activity (MIC), strain EFA 15-3 ([9]; clinical isolate EFA 15-3): 4 µg/mL
- Anti-bacterial activity (MIC), strain EFA 15-4 ([9]; clinical isolate EFA 15-4): 4 µg/mL
- Anti-bacterial activity (MIC), strain EFA 15-5 ([9]; clinical isolate EFA 15-5): 4 µg/mL
- Anti-bacterial activity (MIC), strain EFA 15-6 ([9]; clinical isolate EFA 15-6): 4 µg/mL
- Anti-bacterial activity (MIC), strain EFA 15-9 ([9]; clinical isolate EFA 15-9): 4 µg/mL
- HCT116 inhibition rate/% [10]: 78%
- inhibition at 30 µM ([11]; Homo sapiens, MGC-803, 72 h): > 50%
- Inhibition of proliferation, Gastric cancer MGC-803 ([11]; 72 hours, 30 µM): 63%
- Inhibition of proliferation, Liver cancer BEL-7402 [12]: 73%
- inhibition at 30 µM [13]: 30%
